We go through 34 compounds from US8815846B2, “Family of antichagasics derived from imidazo[4,5-C][1,2,6]thiadiazine 2,2-dioxide” (Universidad de la Republica de Uruguay, priority 2009, dated 2014).

Usually inhibition stands for the percentage by which the read-out fell short of the control. What is called melting point is the temperature, or range, at which the solid turns liquid.

Like-named read-outs stand apart in the source and are kept apart here. Some results are limits rather than exact numbers.

Data set [1] concerns Trypanosoma cruzi, epimastigote form of the Tulahuen 2 strain. Briefly: In vitro growth inhibition of Trypanosoma cruzi epimastigotes (Tulahuen 2 strain), absorbance at 600 nm. The class given is cell-based. Conditions: 120 h, absorbance on day 5, duplicate, error ±3%, read-out: IC50 Anti-T. cruzi activity of the Tulahuen 2 strain. As for the experimental part: The studies of the antichagasic activity were performed in vitro against Trypanosoma cruzi, on the epimastigote form of the Tulahuen 2 strains, (from the strains collection of the Biological Physicochemistry Laboratory, of the Institute of Biological Chemistry, of the Faculty of Science, University of the Republica Oriental of Uruguay, Uruguay). Said strains were cultured at 28° C. in an axenic medium (BHI-tryptose), complemented with 5% of fetal bovine serum. […] The growth of the parasite was followed during 11 days by culture absorbance measurements at 600 nm, proportional to the number of cells present. Before inoculation, a pre-established quantity of each compound of the invention to test was incorporated in the medium, dissolved in DMSO (dimethylsulfoxide). The final concentration of DMSO in the culture medium never exceeded 0.4%, using a blank (absence of product or compound of the invention) with 0.4% DMSO. […] The growth PI was calculated as follows: PI={1−[(Ap−Aop)/(Ac−Aoc)]}×100 where: • Ap=A600 nm of the culture containing the product on day 5. • Aop=A600 nm of the culture containing the product after addition of the culture (day 0). • Ac=A600 nm of the blank on day 5. • Aoc=A600 nm of the blank on day 0. The A600 nm taken on day 5 corresponds to the late exponential phase in the culture growth curve. The determination of the IC50 (half maximal inhibitory concentration) was performed following the growth of the parasite in the absence (control) and presence of increasing concentrations of the corresponding products. The absorbance was measured on day 5 and it was related to the control.

In the next data set the target is cruzipain (Trypanosoma cruzi, UniProt P25779). The experiment in a line: Cruzipain enzyme inhibition (chromogenic substrate Bz-Pro-Phe-Arg-p-NA, absorbance 410 nm). The class given is biochemical. Conditions: 10 min preincubation, pH 7.6, read-out: % Inhibition CP (cruzipain); for inhibition at 25 µM: 25 μM inhibitor; for inhibition at 50 µM: 50 μM inhibitor; for inhibition at 100 µM: 100 μM inhibitor. As for the experimental part: The capacity of inhibiting the cruzipain enzyme was performed according to the protocol detailed below: cruzipain (10 μL) was incubated with a reaction mixture containing a final concentration of 50 mM of Tris-HCl buffer solution, pH 7.6, 10 mM β-mercaptoethanol and 25, 50 or 100 μM of the inhibitor during 10 min at ambient temperature. Later the chromogenic substrate Bz-Pro-Phe-Arg-p-NA was aggregated at a final concentration of 150 μM, and the increase in absorbance at 410 nm was followed for 5 min at temperature in a Beckman DU 650 spectrophotometer. The inhibitors were added dissolved in DMSO and the controls (100% of enzymatic activity) contained the same concentration of solvent. The final volume of the assay is 100 μL. The values represented at least three independent assays. The data obtained for some of the derivatives in table 3 are shown by way of example.

Another data set relates to J774 murine macrophages. The experiment in a line: Non-specific cytotoxicity against J774 murine macrophages (MTT/formazan). The class given is cell-based. Conditions: for PC J774 macrophages (%) (percentage of non-specific cytotoxicity): MTT; for IC50: Mus musculus, read-out: IC50 concentration of compound which reduces the growth of macrophages by 50%. As for the experimental part:
The cellular viability was determined based on the conservation of mitochondrial activity by the MTT/formazan method.

Where [2] appears, read: J774 murine macrophages, 48 hours, average of two evaluations.

Sequence of cruzipain (P25779 123-467): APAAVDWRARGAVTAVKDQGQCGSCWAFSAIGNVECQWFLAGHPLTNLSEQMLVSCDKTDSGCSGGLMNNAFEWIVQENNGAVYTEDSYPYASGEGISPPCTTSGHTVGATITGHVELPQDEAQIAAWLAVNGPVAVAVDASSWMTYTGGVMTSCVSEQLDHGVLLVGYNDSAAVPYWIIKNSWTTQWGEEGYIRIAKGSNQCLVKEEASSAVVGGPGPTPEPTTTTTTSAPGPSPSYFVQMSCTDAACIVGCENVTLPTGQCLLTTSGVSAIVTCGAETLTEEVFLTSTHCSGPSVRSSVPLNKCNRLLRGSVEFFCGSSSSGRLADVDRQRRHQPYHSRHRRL

For the compound `NC1=NS(=O)(=O)Nc2nc(C3CCOC3)[nH]c21` (stereo not shown) [drawing 12], the IC50 in data set [1] turned out to be 20.3 µM.
On to `NC1=NS(=O)(=O)N(Cc2ccc(Cl)cc2)c2nc(-c3ccccc3F)[nH]c21` [drawing 27], for which, at cruzipain, the inhibition at 25 µM stood at 7%, the inhibition at 50 µM was 30% and the inhibition at 100 µM turned out to be 30%.
Take `NC1=NS(=O)(=O)N(Cc2ccccc2)c2nc(C3CCCCC3)n(Cc3ccc(Cl)cc3)c21`: on cruzipain, the inhibition at 25 µM was found to be 10%, the inhibition at 50 µM came to 39% and the inhibition at 100 µM was 40%.
Consider `CN1c2nc(-c3ccsc3)[nH]c2C(N)=NS1(=O)=O`, for which, in data set [1], the IC50 was 26.2 µM.
Same read-out and setting: in the case of `CCc1nc2c([nH]1)C(N)=NS(=O)(=O)N2` it was 28.5 µM.
Same read-out and setting: the same measure for `CN1c2nc(-c3ccccc3)[nH]c2C(N)=NS1(=O)=O` [drawing 8]: 16.7 µM.
Regarding `NC1=NS(=O)(=O)N(Cc2ccc(Cl)cc2)c2nc(C3CCCCC3)[nH]c21`, on cruzipain, the inhibition at 25 µM came out at 0%, the inhibition at 50 µM is 7% and the inhibition at 100 µM is 28%.
For the compound `NC1=NS(=O)(=O)N(Cc2ccccc2)c2nc(-c3ccccc3)n(Cc3ccc(Cl)cc3)c21` [drawing 18], the IC50 in data set [1] was found to be 10 µM.
`NC1=NS(=O)(=O)N(Cc2ccccc2)c2nc(C3CCCCC3)n(Cc3ccccc3)c21` [drawing 23]: on cruzipain, the inhibition at 25 µM stood at 0%, the inhibition at 50 µM is 30% and the inhibition at 100 µM worked out at 58%.
On to `CN(C/C=C/C#CC(C)(C)C)Cc1cccc2ccccc12` [Terbinafine, reference compound], for which the “PC J774 macrophages (%) (percentage of non-specific cytotoxicity)” value is 10.0% with J774 murine macrophages (100 μM compound, 48 hours); 26.0% in the data set on J774 murine macrophages (200 μM compound, 48 hours); 60.0% in the data set with J774 murine macrophages (400 μM compound, 48 hours). Further, the IC50 in the data set on J774 murine macrophages (setting [2]) worked out at 339 µM.
`NC1=NS(=O)(=O)Nc2nc(C3CCOC3)[nH]c21` (stereo not shown) [Example 1b, 4-amino-6-(3-tetrahydrofuryl)-1H,5H-imidazo[4,5-c][1,2,6]thiadiazine 2,2-dioxide]: the melting point fell in the range of 238 to 240 °C.
In the case of `NC1=NS(=O)(=O)Nc2nc(Cc3ccccc3)[nH]c21` [drawing 19], the “PC J774 macrophages (%) (percentage of non-specific cytotoxicity)” value came out at 17.6% with J774 murine macrophages (100 μM compound, 48 hours); 24.3% with J774 murine macrophages (200 μM compound, 48 hours); 29.4% in the data set on J774 murine macrophages (400 μM compound, 48 hours). In addition, the IC50 with J774 murine macrophages (setting [2]) is above 400 µM.
As to `NC1=NS(=O)(=O)Nc2nc(C3CCCC3)[nH]c21`, the IC50 in data set [1] was 28.9 µM.
The compound `NC1=NS(=O)(=O)Nc2nc(C3CCCCC3)[nH]c21` [Example 1a, 4-amino-6-cyclohexyl-1H,5H-imidazo[4,5-c][1,2,6]thiadiazine 2,2-dioxide] registered a melting point of 263 to 265 °C.
On to `NC1=NS(=O)(=O)N(Cc2ccc(Cl)cc2)c2nc(C3CCCCC3)n(Cc3ccc(Cl)cc3)c21`, for which the inhibition at 100 µM at cruzipain stood at 31%.
In the case of `NC1=NS(=O)(=O)Nc2nc(C3CCCCC3)[nH]c21` [drawing 11], in data set [1], the IC50 turned out to be 12.7 µM.
The same measure, in the same setting: the same measure for `NC1=NS(=O)(=O)N(Cc2ccccc2)c2nc(-c3ccccc3)n(Cc3ccccc3)c21` [drawing 10]: 4.5 µM.
As to `CC1CS(=O)(=O)CCN1N=Cc1ccc([N+](=O)[O-])o1` (stereo not shown) [Nifurtimox, 4-([5 nitrofurfurylidene]-amino)-3-methylthiomorpholine-1,1-dioxide, reference compound], the IC50 in data set [1] came to 7.7 µM; in the data set on J774 murine macrophages (J774, 48 h), 316 µM.
On to `NC1=NS(=O)(=O)Nc2nc(Cc3ccccc3)[nH]c21` [drawing 7], for which the IC50 in data set [1] turned out to be 16.2 µM.
Same read-out and setting: the same measure for `NC1=NS(=O)(=O)Nc2nc(-c3ccccc3F)[nH]c21`: 20.2 µM; for `NC1=NS(=O)(=O)N(Cc2ccccc2)c2nc(C3CCCCC3)n(Cc3ccccc3)c21` [drawing 17]: 28.7 µM.
Same read-out and setting: in the case of `NC1=NS(=O)(=O)N(Cc2ccc(Cl)cc2)c2nc(-c3ccccc3F)[nH]c21` [drawing 16] it was 7 µM.
In the case of `CN1c2nc(-c3ccccc3)[nH]c2C(N)=NS1(=O)=O` [drawing 22], the “PC J774 macrophages (%) (percentage of non-specific cytotoxicity)” value was 22.5% in the data set with J774 murine macrophages (100 μM compound, 48 hours); 77.5% in the data set on J774 murine macrophages (200 μM compound, 48 hours); 99.0% with J774 murine macrophages (400 μM compound, 48 hours). Moreover, the IC50 in the data set with J774 murine macrophages (setting [2]) came out at 128 µM.
In the case of `NC1=NS(=O)(=O)Nc2nc(CCc3ccccc3)[nH]c21` [Example 1c, 4-amino-6-phenethyl-1H,5H-imidazo[4,5-c][1,2,6]thiadiazine 2,2-dioxide], the melting point was in the range of 190 to 192 °C.
Same read-out and setting: in the case of `NC1=NS(=O)(=O)N(Cc2ccccc2)c2nc(-c3ccccc3)n(Cc3ccccc3)c21` [Example 3a, 4-amino-1,5-dibenzyl-6-phenylimidazo[4,5-c][1,2,6]thiadiazine 2,2-dioxide] it was 238 to 240 °C.
Turning to `NC1=NS(=O)(=O)Nc2nc(C3CCCCC3)[nH]c21` [drawing 20], the “PC J774 macrophages (%) (percentage of non-specific cytotoxicity)” value in the data set on J774 murine macrophages (100 μM compound, 48 hours) worked out at 1.4%; with J774 murine macrophages (200 μM compound, 48 hours), 8.0%; in the data set on J774 murine macrophages (400 μM compound, 48 hours), 11.5%. In the data set with J774 murine macrophages (setting [2]), the IC50 was above 400 µM.
For the compound `NC1=NS(=O)(=O)N(Cc2ccccc2)c2nc(-c3ccccc3)[nH]c21`, the IC50 in data set [1] worked out at 29.5 µM.
Regarding `CN(C)c1ccc(-c2nc3c([nH]2)C(N)=NS(=O)(=O)N3)cc1`, in data set [1], the IC50 is 28.5 µM.
For `NC1=NS(=O)(=O)N(Cc2ccccc2)c2nc(-c3ccccc3)n(Cc3ccc(Cl)cc3)c21` [Example 3b, 4-amino-1-benzyl-5-(4-chlorobenzyl)-6-phenylimidazo[4,5-c][1,2,6]thiadiazine 2,2-dioxide], the melting point fell in the range of 245 to 247 °C.
As to `NC1=NS(=O)(=O)N(Cc2ccc(Cl)cc2)c2nc(-c3ccccc3F)[nH]c21` [drawing 21], the “PC J774 macrophages (%) (percentage of non-specific cytotoxicity)” value is 100.0% in the data set on J774 murine macrophages (100 μM compound, 48 hours); 100.0% in the data set on J774 murine macrophages (200 μM compound, 48 hours); 100.0% in the data set with J774 murine macrophages (400 μM compound, 48 hours). Moreover, the IC50 with J774 murine macrophages (setting [2]) is below 100 µM.
In the case of `NC1=NS(=O)(=O)Nc2nc(-c3ccsc3)[nH]c21`, the IC50 in data set [1] stood at 22.2 µM.
Consider `NC1=NS(=O)(=O)Nc2nc(CCc3ccccc3)[nH]c21` [drawing 14], for which, in data set [1], the IC50 amounted to 11.5 µM.
The same measure, in the same setting: the same measure for `O=C(Cn1ccnc1[N+](=O)[O-])NCc1ccccc1` [Benznidazole, N-benzyl-2-nitro-1-imidazole acetamide, reference compound]: 7.4 µM.
For `CC(=O)N1CCN(c2ccc(OCC3COC(Cn4ccnc4)(c4ccc(Cl)cc4Cl)O3)cc2)CC1` (stereo not shown) [Ketoconazole, reference compound], the IC50 with J774 murine macrophages (J774, 48 h) was below 100 µM.
